Test results reported in patent US12502365B2 (Instytut Biologii Doswiadczalnej Im. Marcelego Nenckiego …, priority 2019, dated 2025).

Legend:
[1] = tested on: mouse model of epileptogenesis (intra-hippocampal kainic acid injection); assay: Functional analysis in mouse model of epileptogenesis (intra-hippocampal kainic acid injection), video-EEG; format: in vivo, mice; conditions: for duration of the single seizure: P=0.02
Protocol: The functional analysis of therapeutic use of marimastat in mouse model of epileptogenesis (intra-hippocampal kainic acid injection) was performed. Epileptogenesis was induced by the administration of kainic acid directly into the CA1 region of the hippocampus, during stereotactic surgeries. Coordinates for CA1 were chosen according to Paxinos Mouse Brain Atlas. […] The mice were injected intraperitoneally (9 mg/kg b.w.), 3 times after administration of kainic acid at: • 1. 30 minutes • 2. 6 hours • 3. […] Each group consisted of 6 animals; the experiment was performed in two repetitions. Simultaneously, just after KA injections, mice were implanted with cranial and hippocampal electrodes for EEG registration (FIG. 3). […] Injected kainic acid stimulated the degeneration within CA1 and CA3 region, but also led to the changes within dentate gyms area. One of the most important changes observed in the epileptogenesis process was mossy fiber sprouting located in dentate gyms DG. Mossy fiber sprouting is defined as an aberrant sprouting of granule cells axons (mossy fibers) into the inner molecular layer of the dentate gyrus. This process is observed in patients with temporal lobe epilepsy (Buckmaster, 2012). Therefore, hippocampal electrode location was implanted into DG, below the injection site, according to coordinates: The electrode implantation process proceeded according to the following protocol. Stainless steel screw electrodes (Ø1.6 mm, Bilaney Consultants GmbH, Germany) were placed in the skull (Table 3; FIG. 3). A bipolar hippocampal electrode was positioned in the dentate gyms. The 2-week continuous (24 h/7 days) video-EEG (vEEG) monitoring was started immediately after KA injection. Mice were placed in PMMA cages (one mouse per cage) and connected to the recording system with commutators (SL6C, Plastics One Inc., USA). vEEG was performed using the Twin EEG recording system connected to a Comet EEG PLUS with 57-channel amplifier AS40-PLUS (Natus Medical Incorporated, USA) and filtered (high-pass filter cut-off 0.3 Hz, low-pass filter cut off 100 Hz). The behavior of the animals was recorded using a digital camera I-PRO WV-SC385 (Panasonic, Japan). As outcome measures, the present Inventors assessed the occurrence, frequency and duration of spontaneous seizures. An electroencephalographic seizure was defined as a high amplitude (>2× baseline) rhythmic discharge that clearly represented an abnormal EEG pattern that lasted >5 s. The frequency of seizures in each mouse was calculated as the number of seizures per completed EEG recording day or per week. Modified Racine's scale was used in the study (Racine, 1972): The experiment was divided into three parts: • 1) first 24 hours post-KA injection (acute response to injected convulsant) • 2) first week post-KA injection (acute response to injected convulsant) • 3) 4 weeks after KA injection (epileptogenesis upon injected convulsant—chronic changes) In each stage, several parameters were calculated: seizure duration (in seconds), seizure score (according the Racine scale), seizure number (per animal/per day). Additionally, in the first 24 hours, the time between the kainic acid injection and first epileptic seizure was also estimated.

[2] = tested on: MMP-1, MMP-2, MMP-3, MMP-7 and MMP-9; conditions: cited from earlier work
[3] = tested on: murine cancer models: melanoma, hemangioma, ovarian carcinoma, colorectal, breast and pancreatic cancer; conditions: cited from earlier work
[4] = single dose up to 800 mg or repeated dose up to 200 mg twice a day for a week; cited from earlier work
[5] = humans, oral; cited from earlier work
[6] = target: T1, MMP-9 (Rattus norvegicus, UniProt P50282); assay: Inhibition of MMP-9-dependent nectin-3 cleavage in glutamate-stimulated hippocampal neuron cultures (immunoblotting); format: cell-based
T1 construct: stimulate neuronal cell activity leading to release of MMP-9; endogenous in cells; host or cells: primary rat hippocampal neurons, 7 DIV
T1 sequence (P50282 108-708): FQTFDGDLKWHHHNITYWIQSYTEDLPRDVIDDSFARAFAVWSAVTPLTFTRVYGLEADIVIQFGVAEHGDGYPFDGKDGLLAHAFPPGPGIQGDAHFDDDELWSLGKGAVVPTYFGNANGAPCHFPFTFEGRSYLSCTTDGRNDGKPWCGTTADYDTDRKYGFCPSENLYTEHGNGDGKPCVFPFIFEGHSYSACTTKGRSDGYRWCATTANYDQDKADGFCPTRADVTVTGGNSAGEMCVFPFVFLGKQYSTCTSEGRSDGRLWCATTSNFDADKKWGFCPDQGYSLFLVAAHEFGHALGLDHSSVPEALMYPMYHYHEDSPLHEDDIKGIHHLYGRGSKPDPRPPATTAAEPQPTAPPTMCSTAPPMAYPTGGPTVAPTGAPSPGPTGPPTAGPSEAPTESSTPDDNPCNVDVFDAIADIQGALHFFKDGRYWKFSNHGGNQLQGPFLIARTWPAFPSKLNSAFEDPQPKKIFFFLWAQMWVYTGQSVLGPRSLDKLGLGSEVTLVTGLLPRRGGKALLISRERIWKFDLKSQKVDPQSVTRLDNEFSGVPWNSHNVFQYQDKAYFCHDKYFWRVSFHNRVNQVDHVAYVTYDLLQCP
Protocol: In the first non-limiting example, the compound was tested for specific inhibition of MMP-9 activity in vitro. Hippocampal neurons were prepared from newborn Wistar rats at postnatal day P0 as described previously (Habas et al., 2006). The culture medium consisted of Neurobasal Medium supplemented with B27 (Invitrogen) and 1 mM 1-glutamine, 100 U ml^−1 penicillin and 0.1 mg ml^−1 streptomycin. The cells used for these experiments were 7 DIV. […] The control cultures consisted of neurons stimulated with glutamate and of glutamate in the presence of inhibitor I (an inhibitor with proven inhibitory effect on MMP-9 activity). […] The MMP-9 activity level was evaluated by the cleavage of MMP-9 substrate-nectin-3.
Nectin-3 is a transmembrane protein predominantly expressed at post-synaptic part of the synapse (van der Kooij et al., 2014). […] We evaluated the basic amount of nectin-3 (by immunoblotting) and the presence of a cut fragment of nectin-3 (approximately 17 kDa).
For immunoblotting, cultures were homogenized in a lysis buffer containing 1 mM MgCl2, 5 mM HEPES (pH=7.4), 320 mM sucrose, 1 mM Na2F, and cOmplete™ Protease Inhibitor Cocktail (Roche) using Dounce glass homogenizer. Protein concentration was measured using BCA Protein Assay Kit (Pierce). […] For the quantification of individual bands, the scan of the photographic film was analyzed by densitometry using GeneTools software (Syngene).

[7] = target: T2, MMP-9 (Mus musculus, UniProt P41245); assay: MMP-9-dependent nectin-3 cleavage in hippocampus after kainic acid injection (immunoblotting); format: in vivo, mice; conditions: 9 mg/kg i.p. 1 hour prior to KA; hippocampus 6 hours after KA
T2 construct: strongly associated with the release of MMP-9 from dendritic spines; from tissue; host or cells: mouse hippocampus (in vivo, after kainic acid)
T2 sequence (P41245 108-730): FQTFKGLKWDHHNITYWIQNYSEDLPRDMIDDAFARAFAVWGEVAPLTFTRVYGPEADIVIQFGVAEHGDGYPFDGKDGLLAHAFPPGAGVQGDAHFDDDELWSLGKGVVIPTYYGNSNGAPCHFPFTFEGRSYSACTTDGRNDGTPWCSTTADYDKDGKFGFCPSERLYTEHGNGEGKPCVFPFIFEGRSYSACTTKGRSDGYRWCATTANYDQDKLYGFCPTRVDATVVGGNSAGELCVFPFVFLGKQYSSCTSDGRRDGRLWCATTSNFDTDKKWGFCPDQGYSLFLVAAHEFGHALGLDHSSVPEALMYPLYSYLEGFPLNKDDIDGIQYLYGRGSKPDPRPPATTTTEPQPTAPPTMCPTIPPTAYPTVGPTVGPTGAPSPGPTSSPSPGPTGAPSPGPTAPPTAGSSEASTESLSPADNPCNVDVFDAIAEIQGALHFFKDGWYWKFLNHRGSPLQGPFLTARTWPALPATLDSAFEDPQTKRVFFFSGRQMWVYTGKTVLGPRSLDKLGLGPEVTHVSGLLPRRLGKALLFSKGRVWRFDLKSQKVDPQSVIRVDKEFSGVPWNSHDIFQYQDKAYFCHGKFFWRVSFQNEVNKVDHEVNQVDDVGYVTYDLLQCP
Protocol: In a further nonlimiting example, marimastat was tested in vivo, in a mouse model of epileptogenesis (intra-hippocampal kainic acid injection). […] This is the optimal time allowing for its potential therapeutic effects. […] As a result of the KA injection, strong epileptic seizures were observed due to increased neuronal activity.
The process of developing epileptic seizures evoked by KA (epileptogenesis) is strongly associated with the release of MMP-9 from dendritic spines. […] For this purpose, after 6 hours following KA-injection the hippocampus was isolated and the immunoblotting assay was performed for the presence of cleaved form of nectin-3 protein.

[8] = 4 weeks after KA injection, not significant

MMP-9-dependent cleavage of nectin-3 in vitro ([6]; hippocampal dissociated cell cultures, 7 DIV, glutamate 5 μM, 17 kDa nectin-3 fragment): inhibits
minimum effective dose inhibiting nectin-3 cleavage ([6]; tested at 5 nM, 0.5 μM, 5 μM, 40 μM and 100 μM, 30 min before glutamate): 0.5 µM
MMP-9-dependent nectin-3 enzymatic cleavage in vivo (optical density of the 17 kDa nectin-3 fragment) [7]: specifically reduced
SMILES: CNC(=O)[C@@H](NC(=O)[C@H](CC(C)C)[C@H](O)C(=O)NO)C(C)(C)C [marimastat, Marimastat]
duration of the single seizure ([1]; 4 weeks after KA injection): inhibited
seizure number [1, 8]: slightly decreased
seizure score [1, 8]: slightly decreased
latency to the 1st seizure ([1]; first 24 hours post-KA): no differences
seizure duration ([1]; first 24 hours post-KA): no differences
seizure score (Racine scale) ([1]; first 24 hours post-KA, 9 mg/kg i.p. at 30 min, 6 h, 24 h, P=0.0016): significantly decreased
seizure number ([1]; first 24 hours post-KA, P=0.005): significantly decreased
seizure number ([1]; first week post-KA): did not change
seizure score ([1]; first week post-KA): did not change
duration of the single seizure ([1]; first week post-KA): significantly reduced
inhibitory activity against major MMPs [2]: potent broad-spectrum inhibitory activity
tumor progression [3]: inhibited tumor progression
side effects in healthy subjects [4]: did not show any side effects
bioavailability [5]: high and predictable
half-life [5]: approximately 15 hours
